Drawing on the OPERA property sets (Mansouri et al. 2018), this text covers logP for 31 compounds.

Turning to `CC(C)(C)NC(=O)C=Cc1ccc([N+](=O)[O-])o1`, the logP (commonly a log measure of how a compound divides between an organic and an aqueous phase) was 2.33.

`COC(=O)C(=Cc1ccc(C(=O)OC)o1)[N+](=O)[O-]`: the logP came out at 1.87.

Compound `CNC(=O)C=Cc1ccc([N+](=O)[O-])o1` showed a lipophilicity (logP) of 0.98.

`O=[N+]([O-])c1ccc(C=CS(=O)(=O)c2ccccc2)o1` registered a logP of 1.88.

`CCCNC(=O)C=Cc1ccc([N+](=O)[O-])o1` displayed a logP of 1.86. This logP and that of the compound before are within 0.2 log units of each other.

Consider `CCCCNC(=O)C=Cc1ccc([N+](=O)[O-])o1`, for which the logP came out at 2.36.

As to `CCOC(=O)C(=Cc1ccc([N+](=O)[O-])o1)C(=O)OCC`, the logP came to 2.5. The logP values of the last two compounds are within 0.2 log units of each other.

The compound `N#CC=Cc1ccc([N+](=O)[O-])o1` returned a logP of 1.05.

The compound `COC(=O)C(=Cc1ccc(C)o1)[N+](=O)[O-]` had a lipophilicity (logP) of 2.44.

Compound `COC(=O)C(=Cc1ccc(Br)o1)[N+](=O)[O-]` had a lipophilicity (logP) of 2.74.

Regarding `CCCCCOC(=O)C=Cc1ccc([N+](=O)[O-])o1`, the lipophilicity (logP) was 3.4.

`CCOC(=O)C=Cc1ccc([N+](=O)[O-])o1`: the logP is 2.1.

Regarding `COC(=O)C(=Cc1ccc(I)o1)[N+](=O)[O-]`, the lipophilicity (logP) came to 3.

`CCNC(=O)C=Cc1ccc([N+](=O)[O-])o1` displayed a logP of 1.39.

With `CN(C)C(=O)C=Cc1ccc([N+](=O)[O-])o1`, the logP came out at 0.82.

The compound `CCC(C)OC(=O)C=Cc1ccc([N+](=O)[O-])o1` (stereo unspecified) yielded a logP of 3.09.

`O=C(O)C=Cc1ccc([N+](=O)[O-])o1` yielded a logP of 0.68.

In turn, `COC(=O)C(=Cc1ccco1)[N+](=O)[O-]` registered a logP of 1.88.

For the compound `CCCOC(=O)C=Cc1ccc([N+](=O)[O-])o1`, the logP amounted to 2.67.

For the compound `COC(=O)C=Cc1ccc([N+](=O)[O-])o1`, the logP came out at 1.65.

For the compound `CC(C)OC(=O)C=Cc1ccc([N+](=O)[O-])o1`, the logP was 2.64.

On to `O=[N+]([O-])C=Cc1ccc([N+](=O)[O-])o1`, for which the logP came to 1.3.

On to `CCC(C)NC(=O)C=Cc1ccc([N+](=O)[O-])o1` (stereo unspecified), for which the logP worked out at 2.28.

Consider `CC(C)(C)CNC(=O)C=Cc1ccc([N+](=O)[O-])o1`, for which the logP was determined as 2.61.

In turn, `CC(C)(C)OC(=O)C=Cc1ccc([N+](=O)[O-])o1` showed a logP of 3.06.

Compound `O=[N+]([O-])c1ccc(C=CBr)o1` gave a logP of 2.45.

`CC(C)CNC(=O)C=Cc1ccc([N+](=O)[O-])o1` returned a logP of 2.23.

`CCCCOC(=O)C=Cc1ccc([N+](=O)[O-])o1` gave a logP of 2.83.

For the compound `COC(=O)C(=Cc1ccc([N+](=O)[O-])o1)[N+](=O)[O-]`, the log partition coefficient (logP) was 1.6.

Consider `CC(C)COC(=O)C=Cc1ccc([N+](=O)[O-])o1`, for which the logP was determined as 3.14.

`C=Cc1ccc([N+](=O)[O-])o1`: the logP was found to be 1.61.
